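Dose response: 5 concentrations. Exposure: 48 h. Format: 96-well plates. Endpoint: linear interpolation; highest concentration if not reached. GI50 is the concentration that inhibits growth by half.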 Active and inactive are the calls of the source. No stated cut-off is given here; in the data, active = GI50 up to about 1.1 µM and inactive = higher.

Assay in all cases: inhibition of tumour cell growth, NCI panel, 48 h
Assay [1] deals with A498.
Assay [2] has as its system CAKI-1.
The test system of assay [3] is CCRF-CEM.
Assay [4] concerns COLO 205.
For assay [5], the system named is DMS-273.
In assay [6] the test system is HCC 2998.
For assay [7], the system named is HCT-15.
The test system of assay [8] is HL-60.
Assay [9] deals with IGROV-1.
The test system of assay [10] is MOLT-4.
The subject of assay [11] is OVCAR-8.
The test system of assay [12] is SF-295.
The test system of assay [13] is SK-MEL-28.
The subject of assay [14] is SK-MEL-5.
The subject of assay [15] is SNB-19.
The test system of assay [16] is U-251.
The subject of assay [17] is UACC-62.
In assay [18] the test system is UO-31.
For assay [19], the system named is MDA-N.
In assay [20] the test system is PC-3.

On to `CNC(=O)SCC(N)C(=O)O` (stereo not drawn), for which the GI50 in assay [1] is > 100 µM (inactive); in [2], 65.8 µM (inactive); in assay [3], 25.8 µM (inactive); in assay [4] it was 61.1 µM (inactive); in assay [5], 71.4 µM (inactive); in [6], > 100 µM (inactive). For the same compound, the GI50 in [7] is 46 µM; in [8], 25.2 µM (inactive); in assay [9], > 100 µM (inactive); in assay [10] it was 38.2 µM (inactive); in assay [11], > 100 µM (inactive); in [12], > 66.2 µM (inactive). Further, the GI50 in assay [13] is > 100 µM (inactive); in assay [14], > 78.7 µM (inactive); in [15], > 100 µM (inactive); in assay [16] it was > 89.9 µM (inactive); in [17], > 94.8 µM (inactive); in assay [18], > 100 µM (inactive).

On to `NC(CCP(=O)(O)CCC1C=CC=CC1)C(=O)O` (stereo not drawn), for which the GI50 in assay [2] was > 100 µM (inactive); in assay [3], > 100 µM (inactive); in [4], > 100 µM (inactive); in assay [6] it was > 100 µM (inactive); in [7] it was above 100 µM; in [8], > 100 µM (inactive). The GI50 in assay [9], in assay [19], in assay [10], in [11], in assay [20] and in [12] was > 100 µM (inactive) in each case. The GI50 in assay [13], in assay [14], in [15], in assay [16], in assay [17] and in assay [18] was > 100 µM (inactive) in each case.

With `Nc1cccc2c1C1=NNC(=O)CC1C2` (stereo not drawn), the GI50 in assay [1], in assay [2], in assay [3], in assay [4], in [5] and in assay [6] was > 100 µM (inactive) each time. Further, the GI50 was above 100 µM in assay [7]; > 66.5 µM (inactive) in assay [8]; > 100 µM (inactive) in assay [9]; > 100 µM (inactive) in assay [10]; > 100 µM (inactive) in [11]; > 100 µM (inactive) in assay [12]. Also, the GI50 in assay [13], in [14], in assay [15], in assay [16], in [17] and in assay [18] was > 100 µM (inactive) throughout.

As for `COc1cc(-c2cc(=O)c3c(O)c(CC=C(C)C)c(O)cc3o2)ccc1O`, the GI50 is > 50 µM (inactive) in assay [1]; 10 µM (inactive) in [2]; 16.8 µM (inactive) in assay [3]; > 50 µM (inactive) in assay [4]; 15 µM in [7]; > 50 µM (inactive) in assay [8]. Also, the GI50 in [9] was 24 µM (inactive); in assay [19], 8.49 µM (inactive); in assay [10], 16.3 µM (inactive); in assay [11], 26.7 µM (inactive); in assay [20], 16.7 µM (inactive); in assay [12], 12 µM (inactive). Moreover, the GI50 in assay [13] is 1.17 µM (inactive); in assay [14] it was 14.6 µM (inactive); in assay [15], > 50 µM (inactive); in assay [16] it was 24.1 µM (inactive); in assay [17] it was 23 µM (inactive); in assay [18], 33.5 µM (inactive).

Regarding `O=C(Nc1ccccc1F)c1c(O)nc2sccn2c1=O`, the GI50 in [1] was > 10 µM (inactive); in [2] it was > 10 µM (inactive); in assay [3] it was > 10 µM (inactive); in assay [4], > 10 µM (inactive); in [6], > 10 µM (inactive); in assay [7], above 10 µM. For the same compound, the GI50 in assay [8], in assay [9], in assay [19], in assay [10], in assay [11] and in assay [20] was > 10 µM (inactive) throughout. Also, the GI50 in [12], in assay [13], in assay [14], in assay [15], in [16] and in assay [17] was > 10 µM (inactive) in each case. In [18], the GI50 is > 10 µM (inactive).

On to `O=C(c1ccccc1)c1ccc2n[se]nc2c1`, for which the GI50 is 31.8 µM (inactive) in assay [1]; 27.7 µM (inactive) in assay [2]; 17.8 µM (inactive) in assay [3]; 21.1 µM (inactive) in assay [4]; 10.3 µM (inactive) in [5]; 8.93 µM (inactive) in assay [6]. Further, the GI50 in assay [7] is 14 µM; in [8], 3.56 µM (inactive); in assay [9] it was 50.6 µM (inactive); in assay [10], 23.9 µM (inactive); in assay [11], 73.5 µM (inactive); in [12], 7.4 µM (inactive). In addition, the GI50 is > 100 µM (inactive) in assay [13]; 11.8 µM (inactive) in assay [14]; > 100 µM (inactive) in [15]; > 100 µM (inactive) in assay [16]; 8.51 µM (inactive) in assay [17]; > 100 µM (inactive) in [18].

As for `C[C@]12CC[C@@H]3c4ccc(OCCN5CCCC5)cc4CC[C@H]3[C@@H]1CCC2=O`, the GI50 in [1] was 81.1 µM (inactive); in assay [2], 31.1 µM (inactive); in assay [3], 37.9 µM (inactive); in [4] it was 8.41 µM (inactive); in assay [6], 10.3 µM (inactive); in assay [7], 6.35 µM. For the same compound, the GI50 in [8] was 45.2 µM (inactive); in assay [9] it was 12.4 µM (inactive); in assay [19] it was 22 µM (inactive); in assay [10] it was 22.4 µM (inactive); in assay [11], 25.6 µM (inactive); in [20] it was 23.7 µM (inactive). The GI50 was 18.7 µM (inactive) in assay [12]; 49.5 µM (inactive) in assay [13]; 13.3 µM (inactive) in assay [14]; 64.3 µM (inactive) in assay [15]; 75.2 µM (inactive) in assay [16]; 23.8 µM (inactive) in assay [17]. The GI50 in assay [18] was 20.8 µM (inactive).

As for `COc1ccc(C2SCc3nc4ccccc4n32)cc1` (stereo not drawn), the GI50 in assay [1] is 5.13 µM (inactive); in assay [2], 2.21 µM (inactive); in assay [3], 3.49 µM (inactive); in [4], 2.73 µM (inactive); in assay [5], 3.43 µM (inactive); in [7], 3.16 µM. For the same compound, the GI50 in [8] was 1.91 µM (inactive); in [9], 4.66 µM (inactive); in [10], 3.37 µM (inactive); in assay [11], 6.07 µM (inactive); in [12] it was 2.94 µM (inactive); in [13], 4.32 µM (inactive). Besides, the GI50 was 3.84 µM (inactive) in assay [14]; 6.07 µM (inactive) in assay [15]; 3.33 µM (inactive) in assay [16]; 3.58 µM (inactive) in assay [17]; 10 µM (inactive) in assay [18].

As to `Cn1c(=O)[nH]c2nncnc2c1=O`, the GI50 in assay [1] was 87.1 µM (inactive); in assay [2], 11 µM (inactive); in assay [3], 173 µM (inactive); in assay [4] it was 69.2 µM (inactive); in assay [5], 21.6 µM (inactive); in assay [6], 54 µM (inactive). The GI50 was 299 µM in assay [7]; 27.9 µM (inactive) in assay [8]; 29.2 µM (inactive) in [9]; 181 µM (inactive) in [10]; 19.8 µM (inactive) in [11]; 103 µM (inactive) in assay [12]. The GI50 in assay [13] is 474 µM (inactive); in [14] it was 92.5 µM (inactive); in assay [15], 51.2 µM (inactive); in [16] it was 28.7 µM (inactive); in [17] it was 44.4 µM (inactive); in assay [18] it was 46 µM (inactive).

As to `CCOC(=O)CCC(NC(=O)OCc1ccccc1)C(=O)NC(CCC(=O)OCC)C(=O)NNC(=O)OC(C)(C)C` (stereo not drawn), the GI50 is > 100 µM (inactive) in assay [2]; 38.5 µM (inactive) in assay [3]; > 100 µM (inactive) in [4]; > 100 µM (inactive) in assay [6]; above 100 µM in [7]; > 100 µM (inactive) in assay [8]. The GI50 in [9] was > 100 µM (inactive); in assay [19], > 100 µM (inactive); in [10], 28.2 µM (inactive); in [11], > 100 µM (inactive); in [20], 38.8 µM (inactive); in assay [12], > 100 µM (inactive). Further, the GI50 in [13], in assay [14], in assay [15], in assay [16], in assay [17] and in [18] was > 100 µM (inactive) each time.

As for `CCOC(=O)CSc1nc(N)c2c(-c3ccc(OC)c(OC)c3)c3c(nc2n1)CCCC3`, the GI50 in assay [2] was > 100 µM (inactive); in assay [3] it was > 100 µM (inactive); in assay [4], > 100 µM (inactive); in assay [7], above 100 µM; in assay [8], > 100 µM (inactive); in assay [9] it was > 100 µM (inactive). Besides, the GI50 in assay [19] is > 100 µM (inactive); in assay [10], > 100 µM (inactive); in assay [11] it was 24.3 µM (inactive); in assay [20], > 100 µM (inactive); in assay [12] it was 24.4 µM (inactive); in assay [13] it was > 100 µM (inactive). For the same compound, the GI50 in [14] was > 100 µM (inactive); in assay [15] it was 95.5 µM (inactive); in assay [16], > 100 µM (inactive); in assay [17] it was > 100 µM (inactive); in [18], > 100 µM (inactive).

For the origin of these results see ChEMBL document CHEMBL1201862, “PubChem BioAssay data set” (2004).
